Test results taken from US20050075271A1, “Crystalline beta2 adrenergic receptor agonist” (priority 2002, published 2005).
Each block holds one molecule with its values, some of them ahead of it.

Experiments:
Type in all cases: physicochemical
[1] = Solid state stability testing of crystalline diHCl salt, ground and unground, 30 days (DSC, TGA, XRPD, HPLC); settings: for crystal stability by DSC after exposure to elevated temperature and humidity: 40° C. and 75% relative humidity vs room temperature desiccator, ground and unground samples, dihydrochloride
Experimental: A single lot of the crystalline diHCl salt of compound 1]prepared as in Example 6, was used to prepare four samples of approximately 30 mg each. Two samples were ground to fine particles with a mortar and pestle. Two samples, one ground and one that had not been processed, were stored in a closed chamber at 40° C. and 75% relative humidity for 30 days and two samples, one ground and one that had not been processed, were stored at room temperature in a desiccators for the same period. Samples were withdrawn for analysis by DSC and TGA at 11 days and by XRPD and HPLC at 30 days.
X-ray powder diffraction patterns were obtained with a Shimadzu 6000 diffractometer using Cu Kα (40.0 kV, 35.0 mA) radiation. The analysis was performed with the goniometer running in continuous-scan mode of 2°/min with a step size of 0.02° over a range of 4 to 45°. Samples were prepared on glass specimen holders as a thin layer of powdered material.
Differential scanning calorimetry traces were obtained with a TA instruments model DSC2010. Samples were placed in sealed aluminum pans for analysis with an empty pan serving as the reference. Samples were equilibrated at 30° C. and heated at 5° C. per minute to a temperature of 300° C. The instrument was calibrated with an indium standard.
(§1) Thermogravimetric analysis was conducted using a TA instruments model Q50. Samples were weighed in aluminum pans and heated from 50° C. to 300° C. at a rate of 10° C./min. Water content was estimated by measuring the total weight loss between 50° and 120° C. (a range in which no significant decomposition was observed).
(§2) Unless otherwise indicated, HPLC analysis was conducted using a Zorbax RP-bonus, C14, 25 cm×4.6 mm column, equilibrated at 35° C. The mobile phases used were: A: 0.1% TFA in 98:2 water:acetonitrile; and B: 0.1% TFA in 10:90 water:acetonitrile. Detection was by UV absorbance at 215 nm. A flow rate of 1.0 mL/min and a gradient of 0 to 60% B over 20 minutes was utilized. The diHCl salt of compound 1 gave a retention time of 11.7 min.

[2] = Solid state stability of recrystallized diHCl salt, 6 months at 40° C. and 75% relative humidity
Experimental: In another test, samples of the recrystallized diHCl salt of Example 7a were stored at 40° C. and 75% relative humidity.
as §1, §2
Chiral purity was determined using a Beckman P/ACE MDQ capillary electrophoresis system. The analysis was performed at pH 2.5 using heptakis-(2,3,-diacetyl-6-sulfato)-β-cyclodextrin (HDAS-β-CD) as the chiral selector and using a 50 μm×31.2 cm fused silica capillary. Detection was by UV absorbance at 200 nm. The four stereoisomers migrate in the following order: SS, RS, SR, RR, where compound 1 is designated as RR.

[3] = Second stability test of aqueous nebulizer formulation, HPLC, 4-9 months storage; settings: nine months at 5° C.
[4] = Stability testing of aqueous nebulizer formulation (Formulation Example 1), HPLC, 1-4 months storage; settings: for Percent of active compound remaining: aqueous formulation 0.1 mg/g, pH 5.00
Experimental: (§3) An aqueous aerosol formulation for nebulizer administration having 0.1 mg of the active compound, compound 1, per gram of solution was prepared by the following procedure. Citric acid (755.8 mg) was added to a vessel charged with 0.9% sodium chloride solution (325.7 g). The active ingredient (42.3 mg) was added to the sodium chloride solution and the resulting mixture was stirred for 5 min and sonicated for 7 min to dissolve the active ingredient. The intial pH of the solution was determined to be 2.54. 1 N NaOH (7.1 g) was slowly added to the solution to obtain a final pH of 5.00. An additional amount of 0.9% sodium chloride solution (26.7 g) was added and the resulting solution was stirred to provide the aqueous formulation (360.3 g).
Aliquots of the formulation prepared as in Example 1 were stored at −20° C., 5° C., room temperature, and 40° C. Samples were removed for analysis by HPLC at 1 month intervals. HPLC analysis was conducted using a Zorbax RP-bonus, C14, 25 cm×4.6 mm column, equilibrated at 35° C. The mobile phases used were: A: 0.1% TFA in 98:2 water:acetonitrile; and B: 0.1% TFA in 10:90 water:acetonitrile. Detection was by UV absorbance at 215 nm. A flow rate of 1.0 mL/min and a gradient of 0 to 60% B over 20 minutes was utilized. The percent of active compound 1 remaining after the indicated period, normalized to the sample stored at −20° C. is given in Table 1 below.

[5] = Second stability test of aqueous nebulizer formulation, HPLC, 4-9 months storage; settings: normalized to −20° C. sample
Experimental: as §3
In a second stability test, aliquots were prepared and stored as above. Samples were removed for analysis by HPLC at various intervals. HPLC analysis was conducted using a MAC MOD Ace-5, C18, 25 cm×4.6 mm, 5 μm column, equilibrated at 30° C. The mobile phases were as described above. Detection was by UV absorbance at 244 nm. The initial condition was 6% phase B. A flow rate of 1.0 mL/min and a gradient of 6 to 30% B over 25 min, 30% to 60% B in 10 min and 60% to 100% B in 2 min were utilized. The retention time of compound 1 was approximately 20 min. The percent of active compound 1 remaining after the indicated period, normalized to the sample stored at −20° C. is given in Table 2 below.

[6] = 40° C. and 75% relative humidity, 30 days, ground and unground
[7] = 6 months at 40° C. and 75% relative humidity

crystal stability by DSC after exposure to elevated temperature and humidity ([1]; listed as crystalline diHCl salt): no detectable difference
XRPD pattern after exposure to heat and humidity [1, 6]: not appreciably affected
chemical degradation by HPLC [1, 6]: no appreciable chemical degradation
thermal stability ([1]; elevated temperatures): thermally stable
hygroscopicity ([1]; exposed to the atmosphere for prolonged periods at high relative humidity): neither hygroscopic nor deliquescent
decomposition on grinding into micronized particles ([1]; ground into micronized particles): without significant decomposition
water content ([2]; 6 mo at 40° C. and 75% relative humidity): 0.37%
appearance of the material after storage [2, 7]: no visible contamination
chemical purity by HPLC analysis after storage [2, 7]: essentially unchanged
chiral purity after storage [2, 7]: no change
water content ([2]; initially): 0.12%
Structure (SMILES): Cl.Cl.O=CNc1cc([C@@H](O)CNCCc2ccc(NC[C@H](O)c3ccccc3)cc2)ccc1O [crystalline diHCl salt of compound 1, N-{2-[4-((R)-2-hydroxy-2-phenylethylamino)phenyl]ethyl}-(R)-2-hydroxy-2-(3-formamido-4-hydroxyphenyl)ethylamine dihydrochloride]
crystal stability by DSC after exposure to elevated temperature and humidity [1]: no detectable effect on crystal stability
water associated with crystals by TGA after exposure to high relative humidity ([1]; 40° C. and 75% relative humidity, ground and unground crystals, 11 days): no appreciable quantity of water becomes associated

free base composition of nebulizer solution upon storage [3]: essentially unchanged
Percent of active compound remaining ([4]; 5° C., 1 month, normalized to sample stored at −20° C.): 101%
Percent of active compound remaining ([4]; 5° C., 2 months, normalized to −20° C. sample): 100%
Percent of active compound remaining ([4]; 5° C., 3 months, normalized to −20° C. sample): 100%
Percent of active compound remaining ([4]; 5° C., 4 months, normalized to −20° C. sample): 99%
Percent of active compound remaining ([4]; 40° C., 1 month, normalized to −20° C. sample): 94%
Percent of active compound remaining ([4]; 40° C., 2 months, normalized to −20° C. sample): 87%
Percent of active compound remaining ([4]; 40° C., 3 months, normalized to −20° C. sample): 72%
Percent of active compound remaining ([4]; 40° C., 4 months, normalized to −20° C. sample): 74%
chemical degradation of nebulizer solution upon storage (HPLC) ([4]; nebulizer solution 0.1 mg compound 1 per gram, four months at room temperature): no unacceptable chemical degradation
Percent of active compound remaining ([4]; room temperature, 1 month, normalized to −20° C. sample): 99%
Percent of active compound remaining ([4]; room temperature, 2 months, normalized to −20° C. sample): 99%
Percent of active compound remaining ([4]; room temperature, 3 months, normalized to −20° C. sample): 97%
Percent of active compound remaining ([4]; room temperature, 4 months, normalized to −20° C. sample): 96%
Percent of active compound remaining ([5]; 5° C., 4 months): 99%
Percent of active compound remaining ([5]; 5° C., 5 months): 99%
Percent of active compound remaining ([5]; 5° C., 6 months): 100%
Percent of active compound remaining ([5]; 5° C., 9 months): 99%
Percent of active compound remaining ([5]; 40° C., 4 months): 74%
Percent of active compound remaining ([5]; 40° C., 5 months): 69%
Percent of active compound remaining ([5]; 40° C., 6 months): 63%
Percent of active compound remaining ([5]; room temperature, 4 months): 97%
Percent of active compound remaining ([5]; room temperature, 5 months): 95%
Percent of active compound remaining ([5]; room temperature, 6 months): 94%
Percent of active compound remaining ([5]; room temperature, 9 months): 90%
Structure (SMILES): O=CNc1cc([C@@H](O)CNCCc2ccc(NC[C@H](O)c3ccccc3)cc2)ccc1O [compound 1, N-{2-[4-((R)-2-hydroxy-2-phenylethylamino)phenyl]ethyl}-(R)-2-hydroxy-2-(3-formamido-4-hydroxyphenyl)ethylamine]
